In ChEMBL document CHEMBL1201862, “PubChem BioAssay data set” (2004):
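Method: 48-hour compound exposure of cells in 96-well plates, five concentrations, linear interpolation of endpoints. At the GI50, growth is halved.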 Activity calls are given as the source filed them. Cut-off read from the data, not from the text of the source: active = GI50 up to about 1.1 µM and inactive = higher.

Columns and labels:
Test in all cases: NCI-60 cell line screen, 48 h
HL-60 = tested on: HL-60
UACC-257 = tested on: UACC-257
RPMI-8226 = tested on: RPMI-8226
OVCAR-3 = tested on: OVCAR-3
NCI-H522 = tested on: NCI-H522
LOX IMVI = tested on: LOX IMVI
OVCAR-5 = tested on: OVCAR-5
IGROV-1 = tested on: IGROV-1
ACHN = tested on: ACHN
SNB-19 = tested on: SNB-19
UO-31 = tested on: UO-31
SF-295 = tested on: SF-295
K562 = tested on: K562
UACC-62 = tested on: UACC-62
EKVX = tested on: EKVX
NCI-H226 = tested on: NCI-H226
M14 = tested on: M14
SK-OV-3 = tested on: SK-OV-3
OVCAR-4 = tested on: OVCAR-4

Measured: GI50

Cc1c2ccccc2cc2cccc[n+]12
inactive: HL-60 29.3 µM | UACC-257 19.2 µM | RPMI-8226 18.7 µM | OVCAR-3 24.4 µM | NCI-H522 12.9 µM | LOX IMVI 27.8 µM | OVCAR-5 56.6 µM | IGROV-1 26.1 µM | ACHN 62.1 µM | SNB-19 28.6 µM | UO-31 10.6 µM | SF-295 34.8 µM | K562 10.4 µM | UACC-62 41.7 µM | EKVX 4.72 µM

CCOC(=O)c1[nH]c2nc(SC)nc(Nc3ccccc3Cl)c2c1N
inactive: UACC-257 33.6 µM | RPMI-8226 15.2 µM | OVCAR-3 20.7 µM | NCI-H226 15.3 µM | M14 37.8 µM | NCI-H522 16.8 µM | LOX IMVI 11.8 µM | OVCAR-5 19.6 µM | SK-OV-3 21.4 µM | IGROV-1 26.9 µM | ACHN 18.3 µM | SNB-19 17.5 µM | UO-31 15.7 µM | SF-295 21 µM | K562 13.9 µM | UACC-62 16.6 µM | OVCAR-4 14.6 µM

CC1=C(C(=O)Nc2ccccc2)C(c2ccc(Cl)c(Cl)c2)C(C(=O)Nc2ccccc2)=C(C)N1
inactive: UACC-257 12.7 µM | OVCAR-3 11.7 µM | M14 11.5 µM | NCI-H522 11.6 µM | LOX IMVI 14.2 µM | OVCAR-5 18.3 µM | SK-OV-3 15.1 µM | IGROV-1 14.5 µM | ACHN 12.1 µM | SNB-19 12.9 µM | UO-31 13.2 µM | SF-295 12.5 µM | UACC-62 10.2 µM | OVCAR-4 9.75 µM | EKVX 16.6 µM

Cc1n[nH]c(=O)n1N1C(=O)CCCC1=O
inactive: UACC-257 > 100 µM | OVCAR-3 > 100 µM | NCI-H226 > 100 µM | M14 > 100 µM | NCI-H522 > 100 µM | OVCAR-5 > 100 µM | SK-OV-3 > 100 µM | IGROV-1 > 100 µM | SF-295 > 100 µM | K562 63.4 µM | UACC-62 > 100 µM | EKVX > 100 µM

CC1(C)Oc2ccc3c(=O)c(-c4ccccc4)c(-c4ccccc4)oc3c2C1C(=O)O (configuration not stated)
inactive: UACC-257 > 100 µM | OVCAR-3 > 100 µM | NCI-H226 > 100 µM | M14 > 100 µM | NCI-H522 > 100 µM | OVCAR-5 > 100 µM | SK-OV-3 > 100 µM | IGROV-1 > 100 µM | SF-295 > 100 µM | K562 63 µM | UACC-62 > 100 µM | OVCAR-4 77.1 µM | EKVX > 100 µM
